Experimental data taken from publication PMC11714206, “Massively Parallel Screening of Toll/Interleukin‐1 Receptor (TIR)‐Derived Peptides Reveals Multiple Toll‐Like Receptors (TLRs)‐Targeting Immunomodulatory Peptides” (Advanced Science, 2024).
“And” between values parts separate entries of the source, which are not always exact repeats. Equal values may be shown once.

Target: T1, MAL^TIR (Homo sapiens, UniProt P58753)
T1 construct: MAL (residues 79–221); 6xHis; made in house; host or cells: E. coli BL21 (DE3)
T1 sequence (P58753 79-221): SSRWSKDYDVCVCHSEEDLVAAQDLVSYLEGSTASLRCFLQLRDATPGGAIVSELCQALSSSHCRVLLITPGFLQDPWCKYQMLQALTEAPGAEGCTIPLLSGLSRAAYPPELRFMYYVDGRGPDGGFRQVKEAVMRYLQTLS
Assay: T‐Surf phage library (P8 and P3) selection against MAL^TIR, four rounds, NGS read counts
Format: binding
Details: for P8_MAL Rank (after) / P8_MAL Rank (before): P8 library; for P3_MAL Rank (after) / P3_MAL Rank (before): P3 library; for Population: 4th round of selection against MAL TIR, share of NGS reads
Method: T‐Surf libraries were screened against the immobilized TIR domains of two major human TLR adaptor proteins, MAL^TIR and MyD88^TIR, allowing cross‐species selection of TIR‐binding motifs with 190 946 TIR‐derived peptides in a single binding assay (Scheme 1). Enriched phage pools from the fourth round of selection were analyzed using NGS after barcoding the peptide‐coding regions of the phage pools.
Phage display screening was performed by coating two wells of a 96‐well plate (Maxisorp, Thermo Fisher Scientific) with 100 µL of 5 µg mL^−1 TIR domains overnight; then, the coated wells were blocked with 200 µL of blocking buffer (0.2% BSA in PBS) and set aside for 1 h at 4 °C with gentle shaking. Next, 100 µL of the phage library was added to the wells and incubated for 1 h at room temperature (RT; 20 – 22 °C) with gentle shaking. The plate was washed four times with PBS containing 0.5% Tween‐20; the bound phages were eluted by adding 100 µL of 100 mM HCl to each well. The elute was neutralized with 10 µL of 1.0 M Tris‐HCl (pH 11.0). E. coli TG1 cells were grown to the log phase (A600 = ≈0.6), and 1 mL of the culture was incubated with 100 µL of the eluted phages for 30 min at 37 °C, with shaking at 200 rpm. Next, 1 µL of M13KO7 helper phages was added, followed by incubation for 45 min at 37 °C, with shaking. Subsequently, the cells were transferred to 25 mL of 2× yeast extract tryptone/carbenicillin/kanamycin medium and incubated overnight at 37 °C with shaking at 200 rpm. The amplified phages were precipitated with 20% PEG‐8000/2.5 M NaCl to be used for the next round of selection.
The naïve T‐Surf libraries in P8 and P3 and the enriched phage pools after four rounds were barcoded for NGS as previously described.^[ [59] ^] Briefly, 5 µL of the phage pool was used as a template for 20 cycles of a 50 µL PCR reaction using […] each of forward and reverse barcoded primers and PrimeSTAR Max DNA Polymerase. The PCR products were purified using Expin Gel SV (GeneAll). The NGS samples were quantified using qPCR, following the qPCR Quantification Protocol Guide (KAPA Library Quantification kits for Illumina Sequencing Platform), and qualified using the TapeStation High Sensitivity D1000 ScreenTape (Agilent Technologies). The indexed libraries were further sequenced by Macrogen (Seoul, Republic of Korea) using the NovaSeq platform (Illumina) with 100 bp paired‐end reads. The reads were demultiplexed by barcodes and filtered for an average Phred quality score of at least 30, followed by trimming the flanking consensus sequences using Cutadapt (version 2.3). Peptide sequence populations were analyzed according to the read counts.

[1] = P8_MAL: rank by count after grouping
[2] = P8_MAL: rank by count before grouping
[3] = 4R selection against MAL, rank after grouping
[4] = 4R selection against MAL, rank before grouping
[5] = selection against MAL, rank after grouping
[6] = selection against MAL, rank before grouping
[7] = P3_MAL pool: P3 T-Surf phage library
[8] = P3_MAL: rank by count after grouping
[9] = P3_MAL: rank by count before grouping
[10] = selection against MAL TIR, rank by count after grouping
[11] = selection against MAL TIR, rank by count before grouping
[12] = selection against MAL, rank by count after grouping
[13] = selection against MAL, rank by count before grouping
[14] = P8_MAL pool: P8 T-Surf phage library

QLIQQWIELHAPAAS
Rank (after) [1]: 151 | Rank (before) [2]: 969

WFYDRLVRLILRDTKV
P8_MAL Rank (after) [3]: 647 | P8_MAL Rank (before) [4]: 1141

NQWRNALSSIASRP
P3_MAL Rank (after) [3]: 625 | P3_MAL Rank (before) [4]: 3351

RNLLAYLRWAVANTVI
P8_MAL Rank (after) [5]: 541 | P8_MAL Rank (before) [6]: 2312

YAFTGHLHRYLVQRAL
Population [7]: 0.00451% | Rank (after) [8]: 104 | Rank (before) [9]: 149

RGFLSHLRNHLQAKDP
P3_MAL Rank (after) [10]: 210 | P3_MAL Rank (before) [11]: 2408

LSGWAFKRGSCAEYEY
Rank (after) [8]: 398 | Rank (before) [9]: 2188

CLLKWKEALHQFHSGV
Rank (after) [8]: 447 | Rank (before) [9]: 1216

LVAHGISNKLKIFATI
Rank (after) [8]: 387 | Rank (before) [9]: 2092

YAFTGHLHRSLVQRGV
Population [7]: 0.00413%

LSVESWRQALEKAGQL
Rank (after) [8]: 392 | Rank (before) [9]: 2181

LKAERWRQALEKAGKL
P3_MAL Rank (after) [10]: 226 | P3_MAL Rank (before) [11]: 2304

RGFLSHLRHHLPAKDQ
P3_MAL Rank (after) [5]: 498 | P3_MAL Rank (before) [6]: 2380

LFFWESLKNVLGSDGR
Rank (after) [1]: 431 | Rank (before) [2]: 2115

RNLAGLVYDCLTKTGA
Rank (after) [8]: 407 | Rank (before) [9]: 2606

SFYERLVRLILRDTTV
Rank (after) [1]: 189 | Rank (before) [2]: 1444

AFFWTQLSTVMGKPTM
P8_MAL Rank (after) [5]: 527 | P8_MAL Rank (before) [6]: 1722

YLKWGYPWFWIVCVL
Rank (after) [1]: 143 | Rank (before) [2]: 1546

SSFREGLSPLAELSGK
Rank (after) [8]: 464 | Rank (before) [9]: 3174

LFYEESLKQLLRANDR
P8_MAL Rank (after) [10]: 276 | P8_MAL Rank (before) [11]: 1101

GFLSHLRHHLQAKDH
Rank (after) [8]: 127 | Rank (before) [9]: 275

AWFRESLSRRLKGLLT
P3_MAL Rank (after) [12]: 708 | P3_MAL Rank (before) [13]: 1810

RFWERPRYLTPSNNHR
P3_MAL Rank (after) [12]: 769 | P3_MAL Rank (before) [13]: 2322

AFLYTFLIILPIRPNF
P8_MAL Rank (after) [3]: 589 | P8_MAL Rank (before) [4]: 1835

ESILNHPRRSSQILSN
P3_MAL Rank (after) [5]: 516 | P3_MAL Rank (before) [6]: 2047

RLLKWKDALHQFHSWV
Population [7]: 0.0132%

PNLRTKLLNYLMHTKT
P3_MAL Rank (after) [10]: 247 | P3_MAL Rank (before) [11]: 2742

DHHLNPPPGKAIKPEMLG
Rank (after) [8]: 442 | Rank (before) [9]: 1951

HFFWIQLKAFWAKPA
Rank (after) [1]: 184 | Rank (before) [2]: 992

VLHKFIGYLRDALQHR
Rank (after) [8]: 184 | Rank (before) [9]: 1689

RNNFIGHLYQALYRI
P8_MAL Rank (after) [12]: 676 | P8_MAL Rank (before) [13]: 2274

NQCRNALTAAANLSGW
Population [7]: 0.00376%

PNLRTKVLNYLMRTK
Rank (after) [8]: 174 | Rank (before) [9]: 955

RLLKWNEELHLFHSWV
P3_MAL Rank (after) [3]: 612 | P3_MAL Rank (before) [4]: 2490

LGFLSHLALNLQAKEH
Rank (after) [8]: 399 | Rank (before) [9]: 2081

WFYESLVSLILRDTIV
Rank (after) [1]: 122 | Rank (before) [2]: 1299

YAFTSHLYDRLQRSGI
P3_MAL Rank (after) [3]: 606 | P3_MAL Rank (before) [4]: 1470

TFLGHLYNALVQAGIH
Population [14]: 0.00463% and 0.00432% and 0.00402%

NQWRNALTAASNLSIW
Rank (after) [8]: 169 | Rank (before) [9]: 3353

LFLWDSLKQPLRSDGR
P8_MAL Rank (after) [10]: 224 | P8_MAL Rank (before) [11]: 2143

KWFWEKLRYALTYRPAT
P3_MAL Rank (after) [3]: 602 | P3_MAL Rank (before) [4]: 3516

WF*ERLVSLILRDTKV
Population [14]: 0.00278%

WFYERLVSLFLRDTKV
Population [14]: 0.00371%
